Assay results from patent publication US20220168403A1, “SUBCUTANEOUS TELOMERASE INHIBITOR COMPOSITIONS AND METHODS FOR USING SAME” (Geron Corporation, priority 2020, published 2022).

Key:
[1] = test system: patients with lower risk myelodysplastic syndrome; conditions: administered intravenously; cited from earlier work
[2] = Pre-study compatibility of imetelstat co-formulated with rHuPH20 (appearance, UV assay, water content, pH, RP-HPLC/UV); format: physicochemical
Method: The following formulations were prepared

[3] = test system: template region of the RNA component of telomerase; conditions: background statement; cited from earlier work
[4] = Bioavailability of imetelstat sodium in rats via subcutaneous and intravenous routes (plasma LC/MS/MS, noncompartmental PK); format: in vivo, Sprague-Dawley rats
Method: 4 male, Sprague-Dawley rats (approximately 250 g-260 g) were dosed intravenously (IV volume 37.5 μL; 30 mg/kg) and 4 male, Sprague-Dawley rats (approximately 250 g-260 g) were dosed subcutaneously (SC volume 113 μL; 90 mg/kg) with imetelstat sodium. Imetelstat sodium is a 5′ palmitoylated 13-mer thiophosphoramidate oligonucleotide composed of the sequence 5′-TAGGGTTAGACAA-3′. Imetelstat sodium was dissolved in water immediately before dosing.
Blood was collected from each of the rats at time points of 0.083 hours (˜5 minutes), 0.25 hours (15 minutes), 1 hour, 2 hours, 4 hours, 8 hours and at 24 hours. A volume of […] of whole blood was collected, yielding about 700 μL to 1000 μL of plasma. Blood was collected through a secondary catheter in IV dosed rats (different from the one used for IV dosing).
Blood samples were collected in EDTA tubes and centrifuged immediately after collection. Collected plasma samples were transferred to a separate vial. Plasma concentration of imetelstat sodium was analyzed by LC/MS/MS.
The plasma concentrations of imetelstat sodium that were analyzed over a 24 hour period are depicted in FIG. 1. The plasma concentrations of imetelstat sodium were analyzed by a noncompartmental PK analysis. The subcutaneous (s.c.) bioavailability was calculated based on the following equation: F=(AUC(s.c.)/Dose(s.c.))/(AUC(i.v.)/Dose(i.v.))×100%.

[5] = test system: patients with myelofibrosis; conditions: administered intravenously, correlated with reduction of mutation burden and cytogenetic abnormalities; cited from earlier work
[6] = test system: cancer cell lines and human tumors; conditions: U.S. Pat. No. 7,494,982, cited from earlier work

**Q.** Which results are given for `CCCCCCCCCCCCCCCC(=O)NCC(O)COP(=O)([S-])OC[C@H]1O[C@@H](n2cc(C)c(=O)[nH]c2=O)CC1NP(=O)([S-])OC[C@H]1O[C@@H](n2cnc3c(N)ncnc32)CC1NP(=O)([S-])OC[C@H]1O[C@@H](n2cnc3c(=O)[nH]c(N)nc32)CC1NP(=O)([S-])OC[C@H]1O[C@@H](n2cnc3c(=O)[nH]c(N)nc32)CC1NP(=O)([S-])OC[C@H]1O[C@@H](n2cnc3c(=O)[nH]c(N)nc32)CC1NP(=O)([S-])OC[C@H]1O[C@@H](n2cc(C)c(=O)[nH]c2=O)CC1NP(=O)([S-])OC[C@H]1O[C@@H](n2cc(C)c(=O)[nH]c2=O)CC1NP(=O)([S-])OC[C@H]1O[C@@H](n2cnc3c(N)ncnc32)CC1NP(=O)([S-])OC[C@H]1O[C@@H](n2cnc3c(=O)[nH]c(N)nc32)CC1NP(=O)([S-])OC[C@H]1O[C@@H](n2cnc3c(N)ncnc32)CC1NP(=O)([S-])OC[C@H]1O[C@@H](n2ccc(N)nc2=O)CC1NP(=O)([S-])OC[C@H]1O[C@@H](n2cnc3c(N)ncnc32)CC1NP(=O)([S-])OC[C@H]1O[C@@H](n2cnc3c(N)ncnc32)CC1N.[Na+].[Na+].[Na+].[Na+].[Na+].[Na+].[Na+].[Na+].[Na+].[Na+].[Na+].[Na+].[Na+]` (stereo partly drawn) [imetelstat sodium, 5′ palmitoylated 13-mer thiophosphoramidate oligonucleotide composed of the sequence 5′-TAGGGTTAGACAA-3′]?
**A.** transfusion independence [1]: able to achieve durable transfusion independence in certain patients; Individual Impurities by RP-HPLC/UV: Unlipidated species ([2]; RRT 0.42): 0.26% Area; Individual Impurities by RP-HPLC/UV: Pre-Peak ([2]; RRT 0.98): 0.35% Area; Individual Impurities by RP-HPLC/UV: Post-Peak 1 ([2]; RRT 1.04): 5.04% Area; Individual Impurities by RP-HPLC/UV: Post-Peak 2 ([2]; RRT 1.08): 0.53% Area; Individual Impurities by RP-HPLC/UV: Post-Peak 3 ([2]; RRT 1.12 (Imetelstat Only), 1.09 (co-formulations)): <0.2% Area; Assay by UV ([2]; pre-study): 1033 µg/mg; Water Content ([2]; pre-study): 4.2%; pH (1 mL, Plastic) ([2]; pre-study): 8.0; Purity by RP-HPLC/UV ([2]; pre-study compatibility): 93.1%; Total Impurities by RP-HPLC/UV ([2]; pre-study compatibility): 6.9%; Appearance of Reconstituted Solution ([2]; pre-study, Imetelstat Only = most current stability data of the drug substance lot): Clear solution,; binding to the template region of the RNA component of telomerase [3]: high affinity; calculated subcutaneous bioavailability (F) ([4]; SC 90 mg/kg vs IV 30 mg/kg, F=(AUC(s.c.)/Dose(s.c.))/(AUC(i.v.)/Dose(i.v.))×100%, 24 hour period): about 95.8%; calculated subcutaneous bioavailability (F) ([4]; repeated experiment): about 81.5%; overall survival and bone marrow fibrosis [5]: able to achieve improvement in overall survival and bone marrow fibrosis; telomerase activity inhibition ([6]; background): inhibits telomerase activity; effect on cell proliferation ([6]; multitude of different cancer cell lines and human tumors): effective against cell proliferation
